{"source": "ChEMBL document CHEMBL1201862", "about": "“PubChem BioAssay data set” (2004)", "experiment_in_all_cases": "NCI-60 cell line screen, 48 h", "key": {"UO-31": {"tested_on": "UO-31"}, "MOLT-4": {"tested_on": "MOLT-4"}, "SF-539": {"tested_on": "SF-539"}, "SW-620": {"tested_on": "SW-620"}, "MCF7": {"tested_on": "MCF7"}, "UACC-62": {"tested_on": "UACC-62"}, "SNB-75": {"tested_on": "SNB-75"}, "PC-3": {"tested_on": "PC-3"}, "OVCAR-5": {"tested_on": "OVCAR-5"}, "TK-10": {"tested_on": "TK-10"}, "NCI-H522": {"tested_on": "NCI-H522"}, "A549": {"tested_on": "A549"}, "Hs-578T": {"tested_on": "Hs-578T"}, "HCT-15": {"tested_on": "HCT-15"}, "OVCAR-8": {"tested_on": "OVCAR-8"}, "CCRF-CEM": {"tested_on": "CCRF-CEM"}, "SNB-19": {"tested_on": "SNB-19"}, "NCI-H460": {"tested_on": "NCI-H460"}, "U-251": {"tested_on": "U-251"}, "RXF 393": {"tested_on": "RXF 393"}, "HT-29": {"tested_on": "HT-29"}, "NCI-H23": {"tested_on": "NCI-H23"}, "SK-MEL-5": {"tested_on": "SK-MEL-5"}, "MDA-MB-231": {"tested_on": "MDA-MB-231"}, "OVCAR-3": {"tested_on": "OVCAR-3"}, "T47D": {"tested_on": "T47D"}, "KM12": {"tested_on": "KM12"}, "786-0": {"tested_on": "786-0"}, "EKVX": {"tested_on": "EKVX"}, "MDA-N": {"tested_on": "MDA-N"}, "HCT-116": {"tested_on": "HCT-116"}, "UACC-257": {"tested_on": "UACC-257"}, "NCI/ADR-RES": {"tested_on": "NCI/ADR-RES"}, "A498": {"tested_on": "A498"}, "ACHN": {"tested_on": "ACHN"}, "DU-145": {"tested_on": "DU-145"}, "COLO 205": {"tested_on": "COLO 205"}, "BT-549": {"tested_on": "BT-549"}, "M14": {"tested_on": "M14"}, "SN12C": {"tested_on": "SN12C"}, "SK-MEL-28": {"tested_on": "SK-MEL-28"}, "HOP-62": {"tested_on": "HOP-62"}, "SF-268": {"tested_on": "SF-268"}, "HOP-92": {"tested_on": "HOP-92"}, "MDA-MB-435": {"tested_on": "MDA-MB-435"}, "K562": {"tested_on": "K562"}, "CAKI-1": {"tested_on": "CAKI-1"}, "Malme-3M": {"tested_on": "Malme-3M"}, "NCI-H226": {"tested_on": "NCI-H226"}, "SK-OV-3": {"tested_on": "SK-OV-3"}, "SK-MEL-2": {"tested_on": "SK-MEL-2"}, "SF-295": {"tested_on": "SF-295"}, "HCC 2998": {"tested_on": "HCC 2998"}, "LOX IMVI": {"tested_on": "LOX IMVI"}, "IGROV-1": {"tested_on": "IGROV-1"}, "HL-60": {"tested_on": "HL-60"}, "OVCAR-4": {"tested_on": "OVCAR-4"}}, "note": "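1) Cells in 96-well plates. 2) Compound, 48 h, 5 concentrations. 3) Linear interpolation between surrounding doses. 4) Unreached endpoint = highest concentration. GI50 marks 50% less growth.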 Calls of active or inactive are those of the source. No stated cut-off is given here; in the data, active = GI50 up to about 1.1 µM and inactive = higher."}
{"molecule": "COC(=O)c1ccccc1C1CN=NC12Cc1ccc(C)c(C)c1C2=O", "note": "(configuration not stated)", "values": [{"measurement": "GI50", "setting": "UO-31", "value": "93.8 µM (inactive)"}, {"measurement": "GI50", "setting": "MOLT-4", "value": "26.1 µM (inactive)"}, {"measurement": "GI50", "setting": "SF-539", "value": "> 100 µM (inactive)"}, {"measurement": "GI50", "setting": "SW-620", "value": "> 100 µM (inactive)"}, {"measurement": "GI50", "setting": "MCF7", "value": "35.6 µM (inactive)"}, {"measurement": "GI50", "setting": "UACC-62", "value": "74 µM (inactive)"}, {"measurement": "GI50", "setting": "SNB-75", "value": "61.2 µM (inactive)"}, {"measurement": "GI50", "setting": "PC-3", "value": "50.8 µM (inactive)"}, {"measurement": "GI50", "setting": "OVCAR-5", "value": "> 100 µM (inactive)"}, {"measurement": "GI50", "setting": "TK-10", "value": "56.2 µM (inactive)"}, {"measurement": "GI50", "setting": "NCI-H522", "value": "6.84 µM (inactive)"}, {"measurement": "GI50", "setting": "A549", "value": "57.5 µM (inactive)"}, {"measurement": "GI50", "setting": "Hs-578T", "value": "> 100 µM (inactive)"}, {"measurement": "GI50", "setting": "HCT-15", "value": 33.9, "unit": "µM"}, {"measurement": "GI50", "setting": "OVCAR-8", "value": "> 100 µM (inactive)"}, {"measurement": "GI50", "setting": "CCRF-CEM", "value": "34.3 µM (inactive)"}, {"measurement": "GI50", "setting": "SNB-19", "value": "> 100 µM (inactive)"}, {"measurement": "GI50", "setting": "NCI-H460", "value": "52.4 µM (inactive)"}, {"measurement": "GI50", "setting": "U-251", "value": "> 100 µM (inactive)"}, {"measurement": "GI50", "setting": "RXF 393", "value": "76.4 µM (inactive)"}, {"measurement": "GI50", "setting": "HT-29", "value": "27.2 µM (inactive)"}, {"measurement": "GI50", "setting": "NCI-H23", "value": "19.1 µM (inactive)"}, {"measurement": "GI50", "setting": "SK-MEL-5", "value": "21.6 µM (inactive)"}, {"measurement": "GI50", "setting": "MDA-MB-231", "value": "40.2 µM (inactive)"}, {"measurement": "GI50", "setting": "OVCAR-3", "value": "> 100 µM (inactive)"}, {"measurement": "GI50", "setting": "T47D", "value": "20.5 µM (inactive)"}, {"measurement": "GI50", "setting": "KM12", "value": "29.2 µM (inactive)"}, {"measurement": "GI50", "setting": "786-0", "value": "> 100 µM (inactive)"}, {"measurement": "GI50", "setting": "EKVX", "value": "> 100 µM (inactive)"}, {"measurement": "GI50", "setting": "MDA-N", "value": "77.4 µM (inactive)"}, {"measurement": "GI50", "setting": "HCT-116", "value": "29.6 µM (inactive)"}, {"measurement": "GI50", "setting": "UACC-257", "value": "25.8 µM (inactive)"}, {"measurement": "GI50", "setting": "NCI/ADR-RES", "value": "21.9 µM (inactive)"}, {"measurement": "GI50", "setting": "A498", "value": "> 100 µM (inactive)"}, {"measurement": "GI50", "setting": "ACHN", "value": "> 100 µM (inactive)"}, {"measurement": "GI50", "setting": "DU-145", "value": "> 100 µM (inactive)"}, {"measurement": "GI50", "setting": "COLO 205", "value": "53.7 µM (inactive)"}, {"measurement": "GI50", "setting": "BT-549", "value": "> 100 µM (inactive)"}, {"measurement": "GI50", "setting": "M14", "value": "62.7 µM (inactive)"}, {"measurement": "GI50", "setting": "SN12C", "value": "> 100 µM (inactive)"}, {"measurement": "GI50", "setting": "SK-MEL-28", "value": "> 100 µM (inactive)"}, {"measurement": "GI50", "setting": "HOP-62", "value": "> 100 µM (inactive)"}, {"measurement": "GI50", "setting": "SF-268", "value": "> 100 µM (inactive)"}, {"measurement": "GI50", "setting": "HOP-92", "value": "28.2 µM (inactive)"}, {"measurement": "GI50", "setting": "MDA-MB-435", "value": "64.3 µM (inactive)"}, {"measurement": "GI50", "setting": "K562", "value": "28.9 µM (inactive)"}, {"measurement": "GI50", "setting": "CAKI-1", "value": "79.6 µM (inactive)"}, {"measurement": "GI50", "setting": "Malme-3M", "value": "> 100 µM (inactive)"}, {"measurement": "GI50", "setting": "NCI-H226", "value": "> 100 µM (inactive)"}, {"measurement": "GI50", "setting": "SK-OV-3", "value": "> 100 µM (inactive)"}, {"measurement": "GI50", "setting": "SK-MEL-2", "value": "> 100 µM (inactive)"}, {"measurement": "GI50", "setting": "SF-295", "value": "46.5 µM (inactive)"}, {"measurement": "GI50", "setting": "HCC 2998", "value": "68.9 µM (inactive)"}, {"measurement": "GI50", "setting": "LOX IMVI", "value": "14.6 µM (inactive)"}, {"measurement": "GI50", "setting": "IGROV-1", "value": "> 100 µM (inactive)"}, {"measurement": "GI50", "setting": "HL-60", "value": "16.3 µM (inactive)"}, {"measurement": "GI50", "setting": "OVCAR-4", "value": "31.6 µM (inactive)"}]}
